Reference: patent US6737383B1, “Herbicidal oxadiazolidines” (priority 1999, dated 2004)

Legend:
purple nutsedge = assay: Test B pre/postemergence purple nutsedge; type: in vivo, Cyperus rotundus
Method in brief: (§1)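 Herbicidal effect was estimated by eye on a ten-point control scale after plants spent twelve to sixteen days in a greenhouse following soil or foliar treatment. Foliar sprays targeted plants at one to four leaves; all doses were formulated in a non-phytotoxic solvent with surfactant.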

blackgrass = assay: Test B pre/postemergence blackgrass; type: in vivo, Alopecurus myosuroides
Method in brief: as §1

surinam grass = assay: Test B pre/postemergence surinam grass; type: in vivo, Brachiaria decumbens
Method in brief: as §1

pigweed = assay: Test B pre/postemergence pigweed; type: in vivo, Amaranthus retroflexus
Method in brief: as §1

wheat = assay: Test B pre/postemergence wheat; type: in vivo, Triticum aestivum
Method in brief: as §1

giant foxtail = assay: Test B pre/postemergence giant foxtail; type: in vivo, Setaria faberii
Method in brief: as §1

sugar beet = assay: Test B pre/postemergence sugar beet; type: in vivo, Beta vulgaris
Method in brief: as §1

velvetleaf = assay: Test B pre/postemergence velvetleaf; type: in vivo, Abutilon theophrasti
Method in brief: as §1

cocklebur = assay: Test B pre/postemergence cocklebur; type: in vivo, Xanthium strumarium
Method in brief: as §1

morningglory = assay: Test B pre/postemergence morningglory; type: in vivo, Ipomoea hederacea
Method in brief: as §1

wild oat = assay: Test B pre/postemergence wild oat; type: in vivo, Avena fatua
Method in brief: as §1

soybean = assay: Test B pre/postemergence soybean; type: in vivo, Glycine max
Method in brief: as §1

rape = assay: Test B pre/postemergence rape; type: in vivo, Brassica napus
Method in brief: as §1

bedstraw = assay: Test B pre/postemergence bedstraw; type: in vivo, Galium aparine; details: Rate 250 g/ha, Postemergence; scale of 0 to 10 where 0 is no effect and 10 is complete control
Method in brief: as §1

corn = assay: Test B pre/postemergence corn; type: in vivo, Zea mays
Method in brief: as §1

crabgrass = assay: Test B pre/postemergence crabgrass; type: in vivo, Digitaria sanguinalis
Method in brief: as §1

[1] = Postemergence, Rate 500 g/ha, scale 0 to 10, 0 is no effect, 10 is complete control
[2] = Preemergence, Rate 62 g/ha, scale of 0 to 10 where 0 is no effect and 10 is complete control
[3] = Preemergence, Rate 125 g/ha, scale 0 to 10, 0 is no effect, 10 is complete control
[4] = Preemergence, Rate 500 g/ha, scale of 0 to 10 where 0 is no effect and 10 is complete control
[5] = Postemergence, Rate 62 g/ha, scale of 0 to 10, 0 is no effect, 10 is complete control
[6] = Postemergence, Rate 125 g/ha, scale 0 to 10, 0 is no effect, 10 is complete control
[7] = Rate 250 g/ha, Postemergence, scale of 0 to 10 where 0 is no effect and 10 is complete control

In the case of CCC(=O)Cn1c(=O)on(C(=O)N(c2ccc(F)cc2F)C(C)C)c1=O [Compound 524], the “Plant response rating, Nutsedge” value (purple nutsedge; [1]) is reported as 0, the “Plant response rating, Nutsedge” value (purple nutsedge; [2]) is reported as 0 and the “Nutsedge plant response rating” value (purple nutsedge; [3]) is reported as 0. For the same compound, the “Nutsedge plant response rating (0 to 10 scale)” value (purple nutsedge; Preemergence, Rate 250 g/ha) was 0, the “Nutsedge plant response rating” value (purple nutsedge; [4]) was 4 and the “Blackgrass plant response rating” value (blackgrass; [5]) was 0. For the same compound, the “Blackgrass plant response rating” value (blackgrass; [6]) was 2, the “Plant response rating, Blackgrass” value (blackgrass; [1]) was 8 and the “Plant response rating, Blackgrass” value (blackgrass; [2]) was 4. The “Blackgrass plant response rating” value (blackgrass; [3]) was 4, the “Blackgrass plant response rating (0 to 10 scale)” value (blackgrass; Preemergence, Rate 250 g/ha) was 4 and the “Plant response rating, Blackgrass” value (blackgrass; [7]) was 9. For the same compound, the “B. signalgrass plant response rating” value (surinam grass; [5]) was 0, the “B. signalgrass plant response rating” value (surinam grass; [6]) was 0 and the “Plant response rating, B. signalgrass” value (surinam grass; [1]) was 9. For the same compound, the “Plant response rating, B. signalgrass” value (surinam grass; [2]) was 0, the “B. signalgrass plant response rating” value (surinam grass; [3]) was 0 and the “B. signalgrass plant response rating (0 to 10 scale, 0 is no effect, 10 is complete control)” value (surinam grass; Preemergence, Rate 250 g/ha) was 2. The “Plant response rating, B. signalgrass” value (surinam grass; [7]) was 2, the “Redroot pigweed plant response rating” value (pigweed; [5]) was 0 and the “Redroot pigweed plant response rating” value (pigweed; [6]) was 0. For the same compound, the “Plant response rating, Redroot pigweed” value (pigweed; [1]) was 0, the “Plant response rating, Redroot pigweed” value (pigweed; [2]) was 8 and the “Redroot pigweed plant response rating” value (pigweed; [3]) was 8. For the same compound, the “Redroot pigweed plant response rating (0 to 10 scale)” value (pigweed; Preemergence, Rate 250 g/ha) was 8, the “Plant response rating, Redroot pigweed” value (pigweed; [7]) was 0 and the “Wheat plant response rating” value (wheat; [5]) was 0. For the same compound, the “Wheat plant response rating” value (wheat; [6]) was 0, the “Plant response rating, Wheat” value (wheat; [1]) was 5 and the “Plant response rating, Wheat” value (wheat; [2]) was 0. For the same compound, the “Wheat plant response rating” value (wheat; [3]) was 5, the “Wheat plant response rating (0 to 10 scale)” value (wheat; Preemergence, Rate 250 g/ha) was 7 and the “Plant response rating, Wheat” value (wheat; [7]) was 0. For the same compound, the “Giant foxtail plant response rating” value (giant foxtail; [5]) was 4, the “Giant foxtail plant response rating” value (giant foxtail; [6]) was 8 and the “Plant response rating, Giant foxtail” value (giant foxtail; [1]) was 9. For the same compound, the “Plant response rating, Giant foxtail” value (giant foxtail; [2]) was 9, the “Giant foxtail plant response rating” value (giant foxtail; [3]) was 9 and the “Giant foxtail plant response rating (0 to 10 scale)” value (giant foxtail; Preemergence, Rate 250 g/ha) was 9. For the same compound, the “Giant foxtail plant response rating” value (giant foxtail; [4]) was 10, the “Plant response rating, Giant foxtail” value (giant foxtail; [7]) was 8 and the “Sugarbeets plant response rating” value (sugar beet; [5]) was 0. The “Sugarbeets plant response rating” value (sugar beet; [6]) was 0, the “Plant response rating, Sugarbeets” value (sugar beet; [1]) was 0 and the “Plant response rating, Sugarbeets” value (sugar beet; [2]) was 0. The “Sugarbeets plant response rating” value (sugar beet; [3]) was 3, the “Sugarbeets plant response rating (0 to 10 scale)” value (sugar beet; Preemergence, Rate 250 g/ha) was 6 and the “Plant response rating, Sugarbeets” value (sugar beet; [7]) was 0. The “Velvetleaf plant response rating” value (velvetleaf; [5]) was 0, the “Velvetleaf plant response rating” value (velvetleaf; [6]) was 0 and the “Plant response rating, Velvetleaf” value (velvetleaf; [1]) was 6. For the same compound, the “Plant response rating, Velvetleaf” value (velvetleaf; [2]) was 0, the “Velvetleaf plant response rating” value (velvetleaf; [3]) was 3 and the “Velvetleaf plant response rating (0 to 10 scale)” value (velvetleaf; Preemergence, Rate 250 g/ha) was 4. For the same compound, the “Velvetleaf plant response rating” value (velvetleaf; [4]) was 4, the “Plant response rating, Velvetleaf” value (velvetleaf; [7]) was 5 and the “Cocklebur plant response rating” value (cocklebur; [5]) was 0. The “Cocklebur plant response rating” value (cocklebur; [6]) was 0, the “Plant response rating, Cocklebur” value (cocklebur; [1]) was 3 and the “Plant response rating, Cocklebur” value (cocklebur; [2]) was 0. The “Cocklebur plant response rating” value (cocklebur; [3]) was 0, the “Cocklebur plant response rating (0 to 10 scale)” value (cocklebur; Preemergence, Rate 250 g/ha) was 0 and the “Cocklebur plant response rating” value (cocklebur; [4]) was 2. For the same compound, the “Plant response rating, Cocklebur” value (cocklebur; [7]) was 0, the “Morningglory plant response rating” value (morningglory; [5]) was 0 and the “Morningglory plant response rating” value (morningglory; [6]) was 2. For the same compound, the “Plant response rating, Morningglory” value (morningglory; [1]) was 2, the “Plant response rating, Morningglory” value (morningglory; [2]) was 0 and the “Morningglory plant response rating” value (morningglory; [3]) was 0. For the same compound, the “Morningglory plant response rating (0 to 10 scale)” value (morningglory; Preemergence, Rate 250 g/ha) was 2, the “Morningglory plant response rating” value (morningglory; [4]) was 2 and the “Plant response rating, Morningglory” value (morningglory; [7]) was 2. The “Wild oats plant response rating” value (wild oat; [5]) was 0, the “Wild oats plant response rating” value (wild oat; [6]) was 0 and the “Plant response rating, Wild oats” value (wild oat; [1]) was 5. For the same compound, the “Plant response rating, Wild oats” value (wild oat; [2]) was 7, the “Wild oats plant response rating” value (wild oat; [3]) was 9 and the “Wild oats plant response rating (0 to 10 scale)” value (wild oat; Preemergence, Rate 250 g/ha) was 8. For the same compound, the “Plant response rating, Wild oats” value (wild oat; [7]) was 0, the “Soybean plant response rating” value (soybean; [5]) was 3 and the “Plant response rating, Soybean” value (soybean; [1]) was 4. For the same compound, the “Plant response rating, Soybean” value (soybean; [2]) was 0, the “Soybean plant response rating” value (soybean; [3]) was 0 and the “Soybean plant response rating (0 to 10 scale)” value (soybean; Preemergence, Rate 250 g/ha) was 0. For the same compound, the “Soybean plant response rating” value (soybean; [4]) was 0, the “Plant response rating, Soybean” value (soybean; [7]) was 3 and the “Rape plant response rating” value (rape; [5]) was 0. The “Rape plant response rating” value (rape; [6]) was 0, the “Plant response rating, Rape” value (rape; [1]) was 3 and the “Plant response rating, Rape” value (rape; [2]) was 2. The “Rape plant response rating” value (rape; [3]) was 2, the “Rape plant response rating (0 to 10 scale)” value (rape; Preemergence, Rate 250 g/ha) was 7 and the “Plant response rating, Rape” value (rape; [7]) was 0. The “Plant response rating, Bedstraw” value (bedstraw) was 9, the “Corn plant response rating” value (corn; [5]) was 0 and the “Corn plant response rating” value (corn; [6]) was 2. For the same compound, the “Plant response rating, Corn” value (corn; [1]) was 5, the “Plant response rating, Corn” value (corn; [2]) was 0 and the “Corn plant response rating” value (corn; [3]) was 0. The “Corn plant response rating (0 to 10 scale)” value (corn; Preemergence, Rate 250 g/ha) was 7, the “Corn plant response rating” value (corn; [4]) was 9 and the “Plant response rating, Corn” value (corn; [7]) was 3. For the same compound, the “Crabgrass plant response rating” value (crabgrass; [5]) was 3, the “Crabgrass plant response rating” value (crabgrass; [6]) was 8 and the “Plant response rating, Crabgrass” value (crabgrass; [1]) was 9. For the same compound, the “Plant response rating, Crabgrass” value (crabgrass; [2]) was 9, the “Crabgrass plant response rating” value (crabgrass; [3]) was 10 and the “Crabgrass plant response rating (0 to 10 scale)” value (crabgrass; Preemergence, Rate 250 g/ha) was 9. The “Crabgrass plant response rating” value (crabgrass; [4]) was 10 and the “Plant response rating, Crabgrass” value (crabgrass; [7]) was 8.
